# Reference: patent US9650325B2, “Compound, preparing method thereof, and use thereof as inhibitors of histone demethylase” (SNU R&DB FOUNDATION, priority 2013, dated 2017)
# Tests used:
# [1] = system: KDM2/7; assay: Immunoblotting of histone from tripartin-treated HeLa cell line: KDM2/7 inhibitory activity (H3K36me3); format: cell-based, human; details: 10 μM, 24 hours, vs DMSO control
# Protocol: (§1) HeLa cell line, which is a uterine cervical cancer cell line, was treated with tripartin and then histone was extracted from the tripartin-treated HeLa cell. A histone methylation antibody which may verify activity of the KDM was analyzed by immunoblotting to measure the KDM inhibiting effect.
# (§2) 0.1% (w/v) DMSO (control group), or 0.1% (w/v) DMSO and 10 μM tripartin (experimental group) was added to the HeLa cell line, which was then incubated at 37° C. for 24 hours. Subsequently, proteins were extracted from the HeLa cell line, and the extracted proteins underwent electrophoresis with 15% SDS-polyacrylamide. Anti-histone H3 antibody (MILLIPORE), anti-H3K9me3 antibody (MILLIPORE), anti-H3K9me2 antibody (MILLIPORE), anti-H3K3me1 antibody (MILLIPORE), anti-H3K27me3 antibody (MILLIPORE), anti-H3K4me3 antibody (MILLIPORE), anti-H3K36me3 antibody (MILLIPORE), anti-H3K79me2 antibody (MILLIPORE), and anti-H3ace antibody (MILLIPORE) were used to perform immunoblotting. […] Herein, H”, “K”, “me”, and “ace” refer to histone, lysine (K), methylation, and acetylation, respectively. The number next to “H” refers to a histone number, the number next to “K” refers to the histone amino acid number, and the number next to “me” refers to the number of methylation. For example, “H3K9me3” refers to histone H3 with a tri-methylated lysine in the ninth position. […]
# [2] = system: KDM4; assay: Immunoblotting of histone from tripartin-treated HeLa cell line: KDM4 inhibitory activity (H3K9me3); format: cell-based, human; details: 10 μM, 24 hours
# Protocol: as §1, §2
# [3] = system: KDM6; assay: Immunoblotting of histone from tripartin-treated HeLa cell line: KDM6 inhibitory activity (H3K27me3); format: cell-based, human; details: 10 μM, 24 hours, vs DMSO control
# Protocol: as §1, §2
# [4] = system: KDM5; assay: Immunoblotting of histone from tripartin-treated HeLa cell line: KDM5 inhibitory activity (H3K4me3); format: cell-based, human; details: 10 μM, 24 hours, vs DMSO control
# Protocol: as §1, §2
# [5] = system: HeLa cell line; assay: Immunoblotting of histone from tripartin-treated HeLa cell line: other histone marks (H3, H3K79me2, H3ace); format: cell-based, human; details: 10 μM, 37° C., 24 hours, vs DMSO control
# Protocol: as §1
# (§3) 0.1% (w/v) DMSO (control group), or 0.1% (w/v) DMSO and 10 μM tripartin (experimental group) was added to the HeLa cell line, which was then incubated at 37° C. for 24 hours. Subsequently, proteins were extracted from the HeLa cell line, and the extracted proteins underwent electrophoresis with 15% SDS-polyacrylamide. Anti-histone H3 antibody (MILLIPORE), anti-H3K9me3 antibody (MILLIPORE), anti-H3K9me2 antibody (MILLIPORE), anti-H3K3me1 antibody (MILLIPORE), anti-H3K27me3 antibody (MILLIPORE), anti-H3K4me3 antibody (MILLIPORE), anti-H3K36me3 antibody (MILLIPORE), anti-H3K79me2 antibody (MILLIPORE), and anti-H3ace antibody (MILLIPORE) were used to perform immunoblotting. […] Herein, H”, “K”, “me”, and “ace” refer to histone, lysine (K), methylation, and acetylation, respectively. The number next to “H” refers to a histone number, the number next to “K” refers to the histone amino acid number, and the number next to “me” refers to the number of methylation. For example, “H3K9me3” refers to histone H3 with a tri-methylated lysine in the ninth position.
# (§4) KDM3, KDM4, KDM6, KDM5, and KDM2/7 demethylate H3K9me2/1, H3K9me3, H3K27, H3K4, and H3K36, respectively.
# [6] = system: KDM3; assay: Immunoblotting of histone from tripartin-treated HeLa cell line: KDM3 inhibitory activity (H3K9me2/1); format: cell-based, human; details: 10 μM, 24 hours, vs DMSO control
# Protocol: as §1, §3, §4
# [7] = Analysis of physicochemical properties of tripartin
smiles,measurement,setting,value
O=C1C[C@@](O)(C(Cl)Cl)c2c(O)cc(O)cc21 [tripartin],H3K36me3 level (immunoblotting),[1]; 37° C.,not increased
same,KDM2/7 inhibitory effect,[1],No inhibitory effect
same,H3K9me3 level (immunoblotting),"[2]; 37° C., vs DMSO control",increased significantly
same,KDM4 inhibitory effect,[2]; in comparison to the DMSO control group,inhibitory effect
same,H3K27me3 level (immunoblotting),[3]; 37° C.,not increased
same,KDM6 inhibitory effect,[3],No inhibitory effect
same,H3K4me3 level (immunoblotting),[4]; 37° C.,not increased
same,KDM5 inhibitory effect,[4],No inhibitory effect
same,H3K79me2 level (immunoblotting),[5],not increased
same,H3ace level (immunoblotting),[5],not increased
same,H3 level (immunoblotting),[5],not increased
same,H3K9me1 level (immunoblotting),[6]; 37° C.,not increased
same,H3K9me2 level (immunoblotting),[6]; 37° C.,not increased
same,KDM3 inhibitory effect,[6],No inhibitory effect
same,Solubility,[7]; intermediate organic solvent such as methanol and acetone,well dissolved
same,Stability of the solid,[7]; room temperature,stable at room temperature
